Data published in EP2014284A1, “Pharmaceutical compositions and uses” (NOVARTIS AG, priority 2007, dated 2009).
Marks after values point to notes of the source that are not given here.

System: hypertensive OA patients
Text: Method: A 4-week, multicenter, randomized, double-blind, double-dummy, parallel group study of hypertensive OA patients aged ≥50 years (office BP ≤140/90 mmHg) on stable antihypertensive treatment. […] The primary outcome measure was the change from baseline (BL) at Week 4 in 24-hour mean ambulatory systolic BP (MASBP) in the intent-to-treat (ITT) population using ANCOVA. The secondary analyses included 24-hour mean ambulatory diastolic BP (MADBP […]. In addition, a post-hoc subgroup analysis was performed to evaluate the primary and secondary analysis at Week 4 (using ANCOVA) for patients exclusively on ACE inhibitors as antihypertensive drug.

[1] = change from baseline, lumiracoxib (n=140) vs ibuprofen (n=132), patients exclusively on ACE-inhibitors, p<0.001

| Structure (SMILES) | increase in MASBP (change from BL at Week 4, 24-hour MASBP, ibuprofen 600 mg tid) [mmHg] | decrease in MASBP (change from BL at Week 4, 24-hour MASBP, lumiracoxib 100 mg od) [mmHg] | 24 h MADBP Difference in LSM (95% CI) [1] | 24 h MASBP Difference in LSM (95% CI) [1] | Clinically relevant increase (>= 5 mm Hg increase in 24 h MADBP and/or >= 10 mm Hg increase in 24h MASBP), number of patients (human, in vivo, 4 weeks) [patients] | Clinically relevant increase (>= 5 mm Hg increase in 24 h MADBP and/or >= 10 mm Hg increase in 24h MASBP), share of patients (human, in vivo, 4 weeks) [%] | 24-hour MADBP, estimated treatment difference (lumiracoxib 100 mg od vs ibuprofen 600 mg tid, Week 4, [95% CI: -2.7, -1.3], p<0.001) [mmHg] |
| --- | --- | --- | --- | --- | --- | --- | --- |
| CC(C)Cc1ccc(C(C)C(=O)O)cc1 (stereo not shown) [ibuprofen] | 2.2 | – | – | – | – | – | – |
| Cc1ccc(Nc2c(F)cccc2Cl)c(CC(=O)O)c1 [lumiracoxib, 5-methyl-2-(2'-chloro-6'-fluoroanilino)phenylacetic acid] | – | 2.7 | -3.9 (-5.1,-2.7)* | -7.5 (-9.6, -5.5)* | 13 | 9.3 | -2 |
